Source: the NIST ThermoML archive (doi:10.1021/je034162x)

Conditions: 101.33 kPa, Liquid, Hot wire method

C1=CC2C=CC1C2 [bicyclo[2.2.1]hepta-2,5-diene]
Conditions	thermal conductivity [W/m/K]	thermal diffusivity [m2/s]
258.57 K	0.1485	–
258.7 K	0.1484	–
258.8 K	0.1484	–
258.99 K	–	1.08e-07
259.32 K	–	1.08e-07
259.55 K	–	1.09e-07
276.78 K	0.1426	–
276.89 K	0.143	–
276.97 K	0.1429	–
277.21 K	–	1.02e-07
277.47 K	–	1.02e-07
277.66 K	–	1.01e-07
296.23 K	0.1371	–
296.35 K	0.1369	–
296.43 K	0.1368	–
296.61 K	–	9.43e-08
296.89 K	–	9.44e-08
297.1 K	–	9.45e-08
313.27 K	0.1315	–
313.38 K	0.1314	–
313.46 K	0.1313	–
313.63 K	–	8.85e-08
313.9 K	–	8.86e-08
314.1 K	–	8.86e-08
331.81 K	0.1256	–
331.91 K	0.1255	–
331.98 K	0.1254	–
332.15 K	–	8.25e-08
332.4 K	–	8.25e-08
332.57 K	–	8.24e-08

C1CCCCCC1 [cycloheptane]
Conditions	thermal conductivity [W/m/K]	thermal diffusivity [m2/s]
262.18 K	0.1272	–
262.37 K	0.1271	–
262.5 K	0.1271	–
262.77 K	–	8.84e-08
263.24 K	–	8.9e-08
263.56 K	–	8.91e-08
280.17 K	0.1228	–
280.35 K	0.1227	–
280.48 K	0.1227	–
280.76 K	–	8.39e-08
281.19 K	–	8.4e-08
281.5 K	–	8.4e-08
297.01 K	0.1187	–
297.2 K	0.1185	–
297.33 K	0.1185	–
297.59 K	–	7.97e-08
298.03 K	–	7.98e-08
298.33 K	–	7.98e-08
320.05 K	0.1132	–
320.23 K	0.1131	–
320.36 K	0.113	–
320.62 K	–	7.47e-08
321.05 K	–	7.46e-08
321.34 K	–	7.46e-08

[2H]C1([2H])C([2H])([2H])C([2H])([2H])C([2H])([2H])C([2H])([2H])C1([2H])[2H] [cyclohexane-d12]
Conditions	thermal conductivity [W/m/K]	thermal diffusivity [m2/s]
280.46 K	0.1163	–
280.63 K	0.1162	–
280.74 K	0.1161	–
280.97 K	–	6.83e-08
281.35 K	–	6.85e-08
281.6 K	–	6.81e-08
291.18 K	0.1133	–
291.34 K	0.1133	–
291.45 K	0.1132	–
291.65 K	–	6.5e-08
292.04 K	–	6.54e-08
292.29 K	–	6.53e-08
303.67 K	0.11	–
303.83 K	0.1099	–
303.92 K	0.1098	–
304.14 K	–	6.23e-08
304.49 K	–	6.22e-08
304.72 K	–	6.19e-08
315.91 K	0.1067	–
316.06 K	0.1066	–
316.17 K	0.1066	–
316.35 K	–	5.91e-08
316.71 K	–	5.93e-08
316.96 K	–	5.96e-08
326.3 K	0.1042	–
326.44 K	0.104	–
326.54 K	0.104	–
326.75 K	–	5.75e-08
327.08 K	–	5.73e-08
327.31 K	–	5.72e-08
